According to patent US9724351B2, “Compounds for the treatment of paramoxyvirus viral infections” (priority 2012, dated 2017):

How the values were obtained:
[1] = Cytotoxicity Determination; format: cell-based; conditions: human, HEp-2 cells, without addition of virus, CCK-8 readout, bins (Table 4: greater than 100 μM; Table 5: equal to or less than 100 μM and greater than 10 μM), read-out: 50% cytotoxicity concentration (CC50)
Procedure: In order to determine the compound cytotoxicity, in parallel, each of the compounds is applied to duplicate wells in a 384-well cell plate at serial final concentrations starting from 100 μM using ½ stepwise dilutions for 7 points without addition of virus. Incubate the cells at 37° C., 5% CO2 for 5 days. Add 6 μl CCK-8 into each well and incubate in a CO2 incubator at 37° C. for 3-4 hours. Read the plates to obtain the optical densities which are used to calculate 50% cytotoxicity concentration (CC50).

[2] = tested on: Respiratory Syncytial Virus (RSV) long strain (ATCC#VR-26); experiment: RSV Antiviral Assay (CPE reduction assay); format: cell-based; conditions: human respiratory syncytial virus, 120 h; HEp-2 cells infected with RSV long strain, 5 days, CCK-8 readout; bins (Table 2: less than 1 μM; Table 3: equal to or higher than 1 μM and less than 50 μM); read-out: 50% effective concentration (EC50)
Procedure: CPE reduction assays are performed as described by Sidwell and Huffman et al., Appl. Microbiol. (1971) 22(5):797-801 with slight modifications. HEp-2 cells (ATCC#, CCL-23) are seeded at a density of 1,500 cells/30 μl/well into the 384-well cell plate(s) (Corning#3701) one day prior to the assay. Compounds are added into 384-well cell plates by Labcyte POD 810 Plate Assembler system. Each of the test compounds is provided to duplicate wells of a 384-well cell plate at final concentrations starting from 100 μM or 1 μM using ⅓ stepwise dilutions for 9 points. Quick-thaw Respiratory Syncytial Virus (RSV) long strain (ATCC#VR-26) stock in a 37° C. water bath. Place on ice until ready to use. Viruses are diluted to the concentration of 100 TCID50/30 μl with medium and 30 μl diluted RSV are added into related wells of 384-well cell plates. For each plate, sixteen wells are set aside as uninfected, untreated cell controls (CC), and nine wells per test plate receive virus only as a control for virus replication (VC). The final DMSO concentration of all wells is 1%. Place the plates at 37° C., 5% CO2 for 5 days.
After 5 days incubation, observe the CPE of cells in all wells. […] Six μl of cell counting kit-8 reagent (CCK-8, Dojindo Molecular Technologies Inc., CK04-20) are added to each well, which allows colorimetric assays to determine the number of viable cells through the dehydrogenase activity detection. After 3-4 hour incubation, the absorbance of each well is measured with a spectrophotometric plate reader at 450 nm wavelength, using a 630 nm filter as background according to manufacturer's instruction. The 50% effective concentration (EC50) is calculated by using regression analysis, based on the mean O.D. at each concentration of compound.

SMILES | CC50 at 5 days [1] | EC50 [2]
COc1ccc(C(=O)NCC(=O)N/N=C(\CCc2ccccc2)c2csc3ccccc23)cc1OC [Compound 495] | 10 to 100 µM | 1 to 50 µM
COc1cc(C(=O)CNC(=O)c2ccc(OCCN)c(OC)c2)nc(-c2csc3c(F)cccc23)c1 [Compound 1214] | 10 to 100 µM | < 1 µM
COc1ccc(C(=O)NCC(=O)c2ccc(OC)c(-c3ccc(C#N)cc3)n2)cc1OC [Compound 1505] | > 100 µM | < 1 µM
COc1ccc(C(=O)NCC(=O)c2ccc(OC)c(-c3ccc(Cl)cc3)n2)cc1OC [Compound 1525] | > 100 µM | < 1 µM
COc1cc(C(=O)CNC(=O)c2ccc(OC)c(OC)c2)nc(-c2ccc(-c3c[nH]nn3)cc2)c1 [Compound 1405] | 10 to 100 µM | 1 to 50 µM
COCC/C(=N/NC(=O)CNC(=O)c1ccc(OC)c(OC)c1)c1csc2ccccc12 [Compound 494] | > 100 µM | < 1 µM
COc1ccc(C(=O)NCC(=O)N/N=C2\CCSc3ccccc32)cc1OC [Compound 451] | > 100 µM | 1 to 50 µM
COc1cc(C(=O)NCC(=O)c2ccc(OC)c(-c3ccc(F)c(C(F)(F)F)c3)n2)ccc1OCCO [Compound 1614] | > 100 µM | < 1 µM
C/C(=N\NC(=O)CNC(=O)c1ccc(N2CCCCC2)cc1)c1csc2ccccc12 [Compound 467] | > 100 µM | 1 to 50 µM
COc1ccc(C(=O)NCC(=O)c2ccnc(-c3csc4c(F)cccc34)c2O)cc1OC [Compound 2102] | 10 to 100 µM | 1 to 50 µM
COc1cc(NCCC(=O)N(C)/N=C/c2csc3c(F)cccc23)ccc1OCCO [Compound 2305] | 10 to 100 µM | 1 to 50 µM
COc1ccc(C(=O)NCC(=O)N/N=C(\C#N)c2ccccc2)cc1OC [Compound 454] | > 100 µM | 1 to 50 µM
C/C(=N\NC(=O)CNC(=O)c1ccc2c(c1)OC(F)(F)O2)c1csc2ccccc12 [Compound 474] | 10 to 100 µM | 1 to 50 µM
CCOc1cc(C(=O)NCC(=O)N/N=C(\C)c2csc3ccccc23)ccc1N(CC)CC [Compound 509] | 10 to 100 µM | 1 to 50 µM
COc1ccc(C(=O)NCC(=O)N/N=C(\CCCC(C)C)c2csc3ccccc23)cc1OC [Compound 489] | 10 to 100 µM | 1 to 50 µM
CCNc1ccc(C(=O)NCC(=O)N/N=C(\C)c2csc3ccccc23)cc1 [Compound 501] | 10 to 100 µM | 1 to 50 µM
COc1ccc(C(=O)NCC(=O)c2nc(-c3csc4c(F)cccc34)cc(C(C)C)c2OC)cc1OC [Compound 1341] | > 100 µM | 1 to 50 µM
COc1cc(C(=O)NCC(=O)c2ccc(OC)c(-c3ccc(F)c(F)c3)n2)ccc1OCCO [Compound 1618] | > 100 µM | < 1 µM
CCN(CC)c1cc(C(=O)NCC(=O)N/N=C(\C)c2csc3ccccc23)ccc1OC [Compound 504] | 10 to 100 µM | 1 to 50 µM
COc1cc(C(=O)NCC(=O)c2ccc(OC)c(-c3ccc(F)c(Cl)c3)n2)ccc1OCC(=O)N(C)C [Compound 1322] | > 100 µM | < 1 µM
COc1cc(C(=O)NCC(=O)c2cccc(-c3csc4c(F)cccc34)n2)ccc1OC1CC(O)C1 (stereo not shown) [Compound 1256] | 10 to 100 µM | < 1 µM
COCCOc1ccc(C(=O)NCC(=O)c2ccc(OC)c(-c3ccc(F)c(Cl)c3)n2)cc1C [Compound 1317] | > 100 µM | 1 to 50 µM

SMILES | CC50 at 5 days [1] | EC50 [2]
COc1ccc(C(=O)NCC(=O)N/N=C(\C)c2csc3ccc(O)cc23)cc1OC [Compound 400-8] | 10 to 100 µM | 1 to 50 µM
COc1ccc(C(=O)NCC(=O)c2cc(C=C(C)C)cc(-c3csc4c(F)cccc34)n2)cc1OC [Compound 1238] | > 100 µM | 1 to 50 µM
COc1ccc(C(=O)NCC(=O)c2nc(-c3csc4c(F)cccc34)cn2C)cc1OC [Compound 1353] | > 100 µM | 1 to 50 µM
COc1ccc(C(=O)NCC(=O)c2ccc(OC)c(-c3ccnc(F)c3)n2)cc1OC [Compound 1535] | > 100 µM | 1 to 50 µM
COc1cc(C(=O)NCC(=O)c2cn(C(C)C)cc(-c3csc4c(F)cccc34)c2=O)ccc1OCCO [Compound 2200] | > 100 µM | < 1 µM
COc1ccc(C(=O)NCC(=O)c2cc(C(C)C)cc(-c3csc4c(F)cccc34)n2)cc1OC [Compound 1200] | > 100 µM | < 1 µM
COc1cc(C(=O)NCC(=O)c2ccc(OC)c(-c3n[nH]c4ccccc34)n2)ccc1OCCO [Compound 1346] | > 100 µM | 1 to 50 µM
COc1ccc(C(=O)NCC(=O)c2ccc(OC)c(-c3cccc(F)c3F)n2)cc1OC [Compound 1526] | > 100 µM | 1 to 50 µM
CNCc1ccc(C(=O)NCC(=O)N/N=C(\CCOC)c2csc3c(F)cccc23)cc1OC [Compound 400-24] | > 100 µM | 1 to 50 µM
COc1cc(C(=O)NCC(=O)c2ccc(OC)c(-c3ccc(Cl)nc3)n2)ccc1OCCO [Compound 1330] | > 100 µM | 1 to 50 µM
COc1ccc(C(=O)CNC(=O)c2cc(C)on2)nc1-c1ccc(F)c(Cl)c1 [Compound 4202] | > 100 µM | 1 to 50 µM
CCOc1ccc(C(=O)NCC(=O)N/N=C/c2coc3c(F)cccc23)cc1OC [Compound 400-28] | > 100 µM | 1 to 50 µM
CCOc1ccc(C(=O)NCC(=O)N(C)/N=C/c2csc3c(F)cccc23)cc1OC [Compound 400-25] | > 100 µM | < 1 µM
COc1cc(C(=O)NCC(=O)c2cccc(-c3csc4c(F)cccc34)n2)ccc1OCC(N)=O [Compound 1247] | 10 to 100 µM | < 1 µM
COc1ccc(C(=O)NCC(=O)N/N=C(\C)c2csc3c(N)cccc23)cc1OC [Compound 497] | > 100 µM | 1 to 50 µM
COc1cc(C(=O)NCC(=O)c2cccc(-c3csc4c(F)cccc34)n2)ccc1O[C@H]1CC[C@@H](O)CC1 [Compound 1225] | > 100 µM | 1 to 50 µM
COc1ccc(C(=O)NCC(=O)N/N=C/c2csc3c(Cl)cccc23)cc1OC [Compound 400-12] | 10 to 100 µM | 1 to 50 µM
COc1cc(Cl)c(C(=O)NCC(=O)N/N=C(\C)c2csc3ccccc23)cc1OC [Compound 482] | 10 to 100 µM | 1 to 50 µM
COc1cc(C(=O)NCC(=O)c2ccc(OC)c(-c3ccc(F)c(Cl)c3)n2)ccc1-n1cccn1 [Compound 2649] | 10 to 100 µM | 1 to 50 µM
CCN(CC)c1ccc(C(=O)NCC(=O)c2ccc(OC)c(-c3ccc(F)c(Cl)c3)n2)cc1 [Compound 1320] | > 100 µM | 1 to 50 µM
COc1cc(C(=O)NCC(=O)c2cccc(-c3csc4c(F)cccc34)n2)ccc1OC1CNC1 [Compound 1251] | > 100 µM | 1 to 50 µM
COc1cc(C(=O)NCC(=O)N/N=C(\CC2CCCCC2)c2csc3c(F)cccc23)ccc1OCCO [Compound 605] | 10 to 100 µM | < 1 µM
